Measured values as given in patent publication US20200378993A1, “MEDICAL USES OF APOLIPOPROTEIN A AND ACTIVATORS THEREOF” (FUNDACIÓN IMDEA ALIMENTACIÓN, priority 2017, published 2020).

Assays:
Type in all cases: cell-based, human
DLD1 cells [1] = test: Migration assay (Corning BioCoat Control plates); details: ApoA1 40 μg/ml 72 hours before, 20 μg/ml during assay
Protocol: (§1) Cell viability and proliferation assays were carried out by means of XCELLigence technology (ACEA Biosciences, Inc.) following the manufacturer's indications. Migration and invasion assays were carried out in Corning® BioCoat™ Control plates (#354578) and Corning® BioCoat™ Matrigel plates (#354480), respectively, following the manufacturer's indications. For the rescue assays, the cells were treated for 72 hours with 30 μM apabetalone (RVX-208; Biovision). Antibodies: ABCA1 (Ab18180, Abcam. 1:500); caveolin-1 (Ab2910, Abcam. 1:1000); α-tubulin (T9026, Sigma 1:1000). The DLD1 cells correspond to a human colorectal cancer-derived adherent epithelial cell line (ATCC® CCL-221™). The stable cell lines capable of overexpressing ABCA1 were obtained by means of transduction with genetically modified lentivirus.
(§2) Following the same treatment regimen, the inventors carried out migration and invasion assays.
(§3) The same assays were repeated by replacing ApoA1 with a treatment with RVX-208. In this case, DLD1 cells were pre-treated for 72 hours before the start of the experiment with RVX-208 at a concentration of 30 μm and were subjected to a treatment with 15 μM of RVX-208 during the development of the experiments.

[2] = test system: ABCA1 cholesterol transporter; test: ABCA1 messenger RNA and protein level after treatment
Protocol: (§4) FIG. 6. A) Proliferation curve in a viability assay carried out by means of XCELLigence technology. The results for the stable cell line overexpressing ABCA1 in the absence and presence of ApoA1 are shown. The cells were treated for 72 hours before the experiment with 40 μg/ml of ApoA1 and with a concentration of 20 μg/ml during acquisition. B) Migration and invasion assays. The method followed was the same as the one described in FIG. 1. (**p-value=0.003; ****p-value<0.0001). C) ABCA1 messenger RNA level (left panel) and ABCA1 protein level (right panel) in the presence and absence of treatment with ApoA1. Results are shown both for the control cells and for those cells overexpressing the transporter.
FIG. 7. A) Proliferation curve in a viability assay carried out by means of XCELLigence technology. Growth of DLD1 cells treated with DMSO as the drug carrier and with Rvx-208 (30 μM). The significant differences existing in the slope of the graph, and therefore in the growth dynamics of the treated cells are shown in the right panel (****p-value<0.0001). B) Migration and invasion assays. The method followed was the same as the one described in FIG. 2 (*p-value=0.0407; ****p-value<0.0001). C) Expression levels of proteins E-cadherin and Vimentin in the presence and absence of Rvx-208. Analysis performed by means of quantitative PCR. The relative expression levels normalized with respect to the untreated control are shown. D) ABCA1, ApoA1, caveolin-1, and α-tubulin immunodetection by means of Western blot. α-tubulin acts as load control. The results of the cells treated with Rvx-208 (30 μM) or with the DMSO carrier are shown. E) Cholesterol flux in cells treated with Rvx-208.
as §1, with “The stable cell lines capable of overexpressing ABCA1 were obtained by means of transduction with genetically modified lentivirus.” left out
(§5) The inventors were able to confirm said results based on the treatment of DLD1 cells expressing ABCA1 with RVX-208 under the conditions already described in detail in Example 3. […] The levels of caveolin-1, a protein whose increased levels have been associated with increases in cell migration and invasion, were also analyzed in this experiment.

DLD1 cells [3] = test: Cell viability and proliferation assay (XCELLigence); details: ApoA1 40 μg/ml first dose of 72 hours, 20 μg/ml during result acquisition; DLD1 cells
Protocol: as §1, §2, §3
(§6) For the purpose of confirming that the effects of RVX-208 in cell phenotype recovery were due to the increase in ApoA-1 expression, the inventors inhibited the expression of said protein by means of transfection of a complementary small RNA, ShApoA1 (FIG. 9). Twenty-four hours after transfection with ShApoA1 expression vector, the inventors started treatment with 30 μM of RVX-208. Cell viability and proliferation in DLD1 cells (D_NoORF) and D1D1 cell lines expressing increased ApoA1 levels (D_ApoA1 ) were analyzed with the xCELLigence system.

DLD1 cells [4] = test: Invasion assay (Corning BioCoat Matrigel plates); details: ApoA1 40 μg/ml 72 hours before, 20 μg/ml during assay; DLD1 cells
Protocol: as §1, §2, §3, §6

DLD1_ABCA1 cells = test: Cell viability and proliferation assay (XCELLigence); details: 40 μg/ml apolipoprotein A1 (72 hours before, 20 μg/ml during acquisition); DLD1_ABCA1 cells
Protocol: as §4
Cell viability and proliferation assays were carried out by means of XCELLigence technology (ACEA Biosciences, Inc.) following the manufacturer's indications. Migration and invasion assays were carried out in Corning® BioCoat™ Control plates (#354578) and Corning® BioCoat™ Matrigel plates (#354480), respectively, following the manufacturer's indications. […]
as §5

[5] = treatment with ApoA1, control cells and cells overexpressing ABCA1

## ApoA1: apolipoprotein A1 protein administered to the cells
DLD1 cells [1]
  capacity to migrate to the serum-rich region: reduced capacities to migrate to the serum-rich region
[2]; direct treatment with ApoA1, as restated in Example 5 (FIG. 6C)
  ABCA1 levels: induces an increase in ABCA1 levels
[2]; [5]
  ABCA1 expression level, messenger RNA level: significantly decreases the expression levels
  ABCA1 expression level, protein level: significantly decreases the expression levels
DLD1 cells [3]
  cell proliferation: significant decrease in cell proliferation
DLD1 cells [4]
  capacity to invade the extracellular matrix: reduced capacities
DLD1_ABCA1 cells
  proliferative capacity: dropped to levels that are comparable to the control situation
